Results as given in patent publication US6958344B2, “Pyrimidine compounds and their use as modulators of chemokine receptor activity” (AstraZeneca AB, priority 2000, dated 2005).

## C[C@H](CO)Nc1nc(SCc2ccccc2F)nc2[nH]c(N)nc12 [Example 4, (2R)-2-[[8-amino-2-[[(2-fluorophenyl)methyl]thio]-9H-purin-6-yl]amino]-1-propanol]
  melting point: 250 to 255 °C (dec.)
